The results in this text go back to US4719046A, “Crysene derivatives” (Burroughs Wellcome Co., priority 1984, dated 1988).

In data set [1] the test system is Streptococcus pyogenes (CN10). Briefly: Antibacterial test, Streptococcus pyogenes (agar dilution). In kind it is cell-based. Conditions: agar dilution, CN10, read-out: MIC. The text has this: (§1) Anitbacterial testing against […] (S3264) and Streptococcus pyogenes (CN10) was done with slight modifications using standard agar dilution assays as outlined in Manual of Clinical Microbiology Second Ed., E. H. Lennette. E. H. Spaulding and J. P. Traunt Eds., American Society for Microbiology, Washington, DC, 1974
For orientation: In agar dilution, organisms are placed on agar that contains the substance at set levels.

Another data set deals with Mycoplasma smegmatis. Briefly: Antibacterial test, Mycoplasma smegmatis (agar dilution). In kind it is cell-based.
Description: as §1

Data set [2] concerns Candida albicans (CN 1863). Briefly: Candida albicans antifungal test. Conditions: Wellcotest sensitivity test agar plus 7% lysed horse blood, CN1863. In kind it is cell-based. From the text: Antifungal testing against Candida albicans (CN 1863) was done with slight modifications using a combination of broth and agar dilution assays as outlined in Laboratory Handbook of Medical Mycology, Chapter 6, pages 441-446, M. R. McGinnis, Academic Press, New York, NY, 1980
Medium: Wellcotest ® sensitivity test agar plus 7% lysed horse blood.

The next data set concerns melanotic melanoma B16. Briefly: Melanotic Melanoma B16 test. In kind it is in vivo, mouse (B6C3-F1). Conditions: median survival T/C; IP days 1, 5, 9; active if >125%; dose mg/kg: 1C 100, 6G 50, 3 70, 2 75, 18B 70. From the text:
Methods for evaluating the antitumor activity of these compounds are essentially those used in the Tumor Panel by the Developmental Therapeutics Program, Division of Cancer Treatment, National Cancer Institute, A. Goldin, et al., Methods in Cancer Research, Vol. XVI, p. 165, Academic Press (1979). Some modifications, in dose level and schedule have been made to increase the testing efficiency.
(§2) CD2-F1 mice, of the same sex, weighing 20±3 g, are used for this test. Control and test animals are injected intraperitoneally with a suspension of ~10^6 viable P388/0 tumor cells on day 0. In each test, several dose levels which bracket the LD20 of the compound are evaluated; each dose level group contains six animals. The test compounds are prepared either in physiologic saline containing 0.05% Tween 80 or distilled water containing 5% dextrose and are administered intraperitoneally on days 1, 5, and 9 relative to tumor implant. Doses are on a mg/kg basis according to individual animals' body weights. The day of death for each animal is recorded, the median identified for each group and the ratios of median survival time for treated (T)/control (C) groups are calculated. The criterion for activity is T/C×100≥120%.
B6C3-F1 mice of the same sex, weighing 20±3 g, are used for this test. A suspension of B16 cells is prepared from a non-necrotic portion of solid tumor tissue obtained from a passage mouse. One gram of tumor is homogenized in 9 mL ice-cold Earle's salts solution and filtered through 1000 mesh screen to remove debris. 0.5 mL of the resulting brei is injected intraperitoneally into each animal. Dosing is carried out as in the P388/0 and L1210 tests. Days of death are recorded for a 60 day period and T/C ratio calculated as in the P388/0 and L1210 tests. The criterion for activity is T/C×100>125%.

Another data set relates to CD2-F1 mice. In words: LD20 in the P388/0 test mice. In kind it is in vivo, mouse (CD2-F1). Conditions: IP days 1, 5, 9, doses on a mg/kg basis. How it is done:
as §2
^A Values in parentheses are the highest nontoxic dose where the
LD20 was not determined.

Molecules are shown by their SMILES. Where a name gives a salt, the structure may show the parent alone.

Turning to `C[C@H](O)[C@@](C)(CO)NCc1cc2c3ccccc3ccc2c2ccccc12` (relative stereo) [Example 6G, (+-)(2R*,3S*)-2-(6-Chrysenylmethylamino)-2-methyl-1,3-butanediol hydrochloride.1/3H2 O], the MIC (as a rule, the lowest concentration that inhibits growth of the organism) is 10 µg/mL in data set [1], at most 3 µg/mL in the data set on Mycoplasma smegmatis and 100 µg/mL in data set [2]. Further, the “T/C × 100% Excluding 60 day Survivors” value in the data set with melanotic melanoma B16 is listed as “+160%”. In the data set with CD2-F1 mice, this compound returned an LD20 of 53 mg/kg.
